Results reported in the supplement of paper PMC10307832.

Columns and labels:
Assay in all cases: relative viability (nuclei count vs DMSO), 5 days (fraction); higher = more cells survive
[1] = compound: C1COCCN1C2=NC(=NC3=C2OC4=C3C=CC=N4)C5=CC(=CC=C5)NC(=O)C6=CN=C(C=C6)N + O=C(CCCCCCC(=O)Nc1ccccc1)NO [Vorinostat] (partner 1 µM)
Procedure, shortened: (§1)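 Lung cancer cell lines were seeded in 1536-well plates and dosed by pin tool the next day, with either a single drug or a fixed anchor-drug dose combined with five library-drug doses (not always all listed) spaced in √10 steps. Five days later, one step fixed the cells and stained their nuclei (final 0.05% Triton X-100, 1% formaldehyde, 1 ug/ml Hoechst), and nuclei were counted on 4× images. Relative viability is the nuclei count in treated wells divided by the count in vehicle wells, and each value is the median of duplicate plates.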

[2] = compound: C1COCCN1C2=NC(=NC3=C2OC4=C3C=CC=N4)C5=CC(=CC=C5)NC(=O)C6=CN=C(C=C6)N + NC(=O)Nc1cc(-c2cccc(F)c2)sc1C(=O)N[C@H]1CCCNC1 [AZD7762] (partner 0.2 µM)
Procedure, shortened: as §1

[3] = compound: C1COCCN1C2=NC(=NC3=C2OC4=C3C=CC=N4)C5=CC(=CC=C5)NC(=O)C6=CN=C(C=C6)N + O=C(c1cc(Cc2n[nH]c(=O)c3ccccc23)ccc1F)N1CCN(C(=O)C2CC2)CC1 [Olaparib] (partner 8 µM)
Procedure, shortened: as §1

SGI-1776 + Vorinostat = compound: CN1CCC(CNc2ccc3ncc(-c4cccc(OC(F)(F)F)c4)n3n2)CC1 [SGI-1776] + O=C(CCCCCCC(=O)Nc1ccccc1)NO [Vorinostat] (partner 1 µM)
Procedure, shortened: as §1

Row | Cell Line | relative viability ([1]; first compound 0.02 µM) | relative viability ([1]; first compound 0.06325 µM) | relative viability ([1]; first compound 0.2 µM) | relative viability ([1]; first compound 0.6325 µM) | relative viability ([1]; first compound 2 µM) | relative viability ([2]; first compound 0.02 µM) | relative viability ([2]; first compound 0.06325 µM) | relative viability ([2]; first compound 0.2 µM) | relative viability ([2]; first compound 0.6325 µM) | relative viability ([2]; first compound 2 µM) | relative viability ([3]; first compound 0.02 µM) | relative viability ([3]; first compound 0.06325 µM) | relative viability ([3]; first compound 0.2 µM) | relative viability ([3]; first compound 0.6325 µM) | relative viability ([3]; first compound 2 µM) | relative viability (SGI-1776 + Vorinostat; first compound 0.08 µM) | relative viability (SGI-1776 + Vorinostat; first compound 0.8 µM) | relative viability (SGI-1776 + Vorinostat; first compound 2.53 µM) | relative viability (SGI-1776 + Vorinostat; first compound 8 µM)
1 | A-427 | 0.831 | 0.904 | 0.855 | 0.838 | 0.798 | 0.788 | 0.746 | 0.673 | 0.655 | 0.689 | 0.795 | 0.717 | 0.72 | 0.789 | 0.598 | 0.861 | 0.9 | 0.882 | 0.815
2 | NCI-H650 | 0.495 | 0.412 | 0.474 | 0.515 | 0.392 | 1.08 | 1 | 0.993 | 0.809 | 0.852 | 0.403 | 0.405 | 0.379 | 0.371 | 0.408 | 0.536 | 0.453 | 0.477 | 0.376
3 | NCI-H1993 | 0.831 | 0.701 | 0.634 | 0.723 | 0.563 | 1.02 | 0.668 | 0.747 | 0.759 | 0.443 | 0.949 | 1.07 | 1.06 | 0.958 | 0.201 | 1.13 | 0.626 | 0.523 | 0.457
4 | NCI-H358 | 0.727 | 0.723 | 0.688 | 0.644 | 0.332 | 0.442 | 0.475 | 0.443 | 0.465 | 0.409 | 0.7 | 0.662 | 0.552 | 0.579 | 0.372 | 0.686 | 1.06 | 0.634 | 0.625
5 | RERF-LC-KJ | 0.696 | 0.782 | 0.653 | 0.603 | 0.598 | 0.882 | 1.18 | 0.997 | 0.945 | 0.794 | 0.953 | 0.982 | 0.866 | 0.93 | 0.554 | 0.694 | 0.745 | 0.686 | 0.48
6 | SK-LU-1 | 0.741 | 0.742 | 0.736 | 0.647 | 0.482 |  |  |  |  |  | 0.429 | 0.432 | 0.607 | 0.478 | 0.355 | 0.892 | 0.803 | 0.697 | 0.648
7 | COR-L 105 | 0.787 | 0.839 | 0.701 | 0.768 | 0.603 |  |  |  |  |  | 0.71 | 0.649 | 0.607 | 0.671 | 0.63 | 0.921 | 0.885 | 0.935 | 0.642
8 | NCI-H2009 | 0.697 | 0.82 | 0.73 | 0.7 | 0.739 |  |  |  |  |  | 0.695 | 0.674 | 0.689 | 0.725 | 0.687 | 0.756 | 0.761 | 0.671 | 0.588
9 | NCI-H1703 |  |  |  |  |  | 0.143 | 0.146 | 0.127 | 0.108 | 0.124 | 0.335 | 0.447 | 0.372 | 0.308 | 0.222 |  |  |  | 
10 | EBC-1 |  |  |  |  |  |  |  |  |  |  | 0.7 | 0.77 | 0.582 | 0.668 | 0.356 |  |  |  | 
11 | NCI-H1792 |  |  |  |  |  | 0.593 | 0.707 | 0.509 | 0.544 | 0.386 | 0.826 | 0.598 | 0.303 | 0.235 | 0.219 |  |  |  | 
12 | SK-MES-1 | 1.12 | 1.22 | 1.09 | 1.03 | 0.72 |  |  |  |  |  | 0.71 | 0.816 | 0.611 | 0.51 | 0.427 | 1.23 | 1.04 | 1.11 | 0.734
13 | NCI-H1650 | 0.512 | 0.611 | 0.406 | 0.642 | 0.354 |  |  |  |  |  | 0.72 | 0.903 | 0.757 | 0.88 | 0.591 | 0.848 | 0.621 | 0.521 | 0.423
14 | A549 |  |  |  |  |  |  |  |  |  |  | 0.39 | 0.353 | 0.311 | 0.243 | 0.239 |  |  |  | 
15 | NCI-H1299 |  |  |  |  |  |  |  |  |  |  | 0.928 | 1.04 | 0.993 | 0.962 | 0.754 |  |  |  | 
16 | NCI-H2228 | 0.469 | 0.743 | 0.464 | 0.529 | 0.39 |  |  |  |  |  | 0.822 | 0.69 | 0.481 | 0.564 | 0.33 | 0.613 | 0.884 | 0.679 | 0.429
17 | NCI-H2023 | 0.602 | 0.747 | 0.506 | 0.623 | 0.319 |  |  |  |  |  | 0.587 | 0.519 | 0.379 | 0.463 | 0.316 | 0.795 | 0.8 | 0.713 | 0.463
18 | Calu-6 |  |  |  |  |  |  |  |  |  |  | 0.685 | 0.68 | 0.604 | 0.528 | 0.467 |  |  |  | 
19 | COR-L23 | 0.517 | 0.525 | 0.458 | 0.403 | 0.381 |  |  |  |  |  | 0.391 | 0.371 | 0.317 | 0.353 | 0.271 | 0.581 | 0.387 | 0.41 | 0.327
20 | NCI-H520 | 0.74 | 0.747 | 0.77 | 0.699 | 0.451 |  |  |  |  |  | 0.383 | 0.352 | 0.332 | 0.328 | 0.292 | 0.711 | 0.779 | 0.797 | 0.561
